Source: patent publication US9102637B2, “Bicyclic thiazole compounds” (CARNA BIOSCIENCES INC., priority 2013, dated 2015)

Target: human TNIK (N-terminal segment, TNIK_N, residues 1-314) (Homo sapiens (Human), UniProt Q9UKE5)
Assay: TNIK kinase assay (mobility shift)
Type: biochemical
Conditions: TNIK_N kinase activity, 25 μM ATP, 1 h at room temperature
Excerpt: Preparation of Recombinant Human TNIK (N-Terminal Segment):
A cDNA encoding the N-terminal segment (TNIK_N, residues 1-314) containing the kinase domain of human TNIK (NM_015028.1) was amplified from cDNA mixture synthesized from human tissue (Biochain) by PCR using the following primers.
The cDNA was subcloned into baculovirus transfer vector pFastBac_GSTb that includes protease cleavage site and glutathione S-transferase purification tag (GST-tag). The plasmid was purified and the insertion of the pFastBac_GSTb-TNIK_N was confirmed by DNA sequencing. Then E. coli DH10Bac competent cells were transformed with the plasmid to prepare the recombinant bacmid according to the instructions for the Bac-to-Bac™ baculovirus expression systems (Invitrogen). The Sf9 cells were transfected with the recombinant bacmid containing pFastBac_GSTb-TNIK_N using Cellfectin Reagent (Invitrogen) in SF-9001I serum free media (Invitrogen). The viral supernatant was collected from the medium 72 h after transfection. The virus was amplified three times by infecting actively growing Sf9 or Sf21 cells in Grace's insect media (Invitrogen) supplemented with 10% FCS and an antibiotic-antimycotic reagent (Invitrogen) for 72 h at 27° C. in T-flask or roller bottles. The titer of amplified TNIK_N virus was estimated at 2.36×10^8 pfu/ml by using BacPAK™ Baculovirus Rapid Titer kit (Clontech).
Log-phase Sf21 cells (2×10^6 cells/ml) in the Grace's insect media were infected with the recombinant baculovirus at MOI of 3.0 and incubated in roller bottles (250 ml media per bottle) for 72 h at 27° C., after which, the cells were collected by centrifugation, and the cell pellet washed with cold PBS and kept at −80° C. until purification. The following purification procedures were carried out at 4° C. The frozen cells were thawed on ice and lysed in lysis buffer (50 mM Tris-HCl, pH 7.5, 150 mM NaCl, 1% Nonidet P-40, 5 mM DTT, 0.5 mM EDTA, 0.5 mM EGTA) supplemented with 1 mM phenylmethansulfonylfluoride, 2 μg/ml leupeptin, 2 μg/ml aprotinin, 1 mM NaF, 100 μM sodium orthovanadate, and 1 μM cantharidin by sonication. The suspended lysate was cleared by centrifugation at 9000g for 20 min and the supernatant was incubated for 1 h with glutathione Sepharose beads (GE Healthcare). The beads were suspended in buffer-H (50 mM Tris-HCl, pH 7.5, 1 M NaCl, 1 mM DTT, 0.5 mM EDTA, 0.5 mM EGTA and 0.05% Brij35) and washed with buffer-H followed by buffer-L (50 mM Tris-HCl, pH 7.5, 150 mM NaCl, 1 mM DTT, 0.5 mM EDTA, 0.5 mM EGTA, 0.05% Brij35) in an Econo-pack column (BIO-RAD). The bound TNIK_N was eluted with elution buffer (50 mM Tris-HCl, pH 8.0, 150 mM NaCl, 1 mM DTT, 10% glycerol, 0.5 mM EDTA, 0.5 mM EGTA and 5 mM reduced glutathione). The eluted fractions were collected and determined the protein concentration by Bradford reagent (BIO-RAD). The TNIKN fractions were pooled and desalted using 10DG column (BIORAD) equilibrated with the storage buffer (50 mM Tris-HCl, pH 7.5, 150 mM NaCl, 1 mM DTT, 10% glycerol, 0.05% Brij35). The purified TNIKN was characterized by electrophoresis using 4-20% polyacrylamide gels and matrix-assisted laser desorption/ionization reflection time-of-flight (MALDI-TOF) mass spectrometry on a Voyager-DE RP MALDI/TOF (Applied Biosystems). TNIK_N was confirmed by the molecular weight and. MASCOT Peptide Mass Fingerprint.
The kinase assays were conducted in a 20 μl volume using 384-well plates (Greiner). The reaction mixture consists of compound or vehicle (1% DMSO), 0.08 ng/μl TNIK_N, 1 μM FITC-labeled substrate peptides, including E-aminocaproic acid and 7 amino acids (described as SEQ ID NO.3 in “Kinase assay of TEST EXAMPLE 1” of WO 2010/064111(P.31)), 20 mM Hepes, pH 7.5, 0.01% Triton X-100, 5 mM MgCl2, 25 μM ATP and 2 mM DTT. As blank, TNIK N was excluded from the reaction mixture of vehicle (1% DMSO). […]

Sequence of human TNIK (N-terminal segment, TNIK_N, residues 1-314) (Q9UKE5 1-314): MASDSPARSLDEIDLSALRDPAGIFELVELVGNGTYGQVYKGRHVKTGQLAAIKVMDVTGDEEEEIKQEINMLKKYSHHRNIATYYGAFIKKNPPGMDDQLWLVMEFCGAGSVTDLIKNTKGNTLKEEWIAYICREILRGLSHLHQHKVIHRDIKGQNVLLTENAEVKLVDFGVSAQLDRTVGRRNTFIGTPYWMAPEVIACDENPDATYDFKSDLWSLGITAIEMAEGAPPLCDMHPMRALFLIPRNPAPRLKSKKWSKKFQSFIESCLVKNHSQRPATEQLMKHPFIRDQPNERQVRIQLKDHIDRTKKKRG

Row | IC50 [nM] | Structure (SMILES)
1 | 8.4 | NCCNc1ccc(C(=O)Nc2sc(Nc3ccc4ccccc4c3)nc2C(N)=O)cc1 [Example 188, 5-{4-[(2-aminoethyl)amino]benzamido}-2-(naph-thalen-2-ylamino)thiazole-4-carboxamide]
2 | 51.3 | COc1cc(Nc2nc(C(N)=O)c(NC(=O)c3ccsc3)s2)cc2ccccc12 [Example 74, 2-[(4-methoxynaphthalen-2-yl)amino]-5-(thio-phene-3-carboxamido)thiazole-4-carboxamide]
3 | 26.5 | NC(=O)c1nc(Nc2ccnc3ccccc23)sc1NC(=O)c1ccc(Cn2ccnc2)cc1 [Example 255, 5-{4-[(1H-imidazol-1-yl)methyl]benzamido}-2-(quinolin-4-ylamino)thiazole-4-carboxamide]
4 | 9.7 | COc1ccc2cc(Nc3nc(C(N)=O)c(NC(=O)c4ccc(N)cc4)s3)ccc2c1 [Example 136, 5-(4-aminobenzamido)-2-[(6-methoxynaphthalen-2-yl)amino]thiazole-4-carboxamide]
5 | 5.5 | NC(=O)c1nc(Nc2ccc3ccccc3c2)sc1NC(=O)c1ccc(CN2CC[C@@H](O)C2)cc1 [Example 202, (R)-5-{4-[(3-hydroxypyrrolidin-1-yl)methyl]benzamido}-2-(naphthalen-2-ylamino)thiazole-4-carboxamide]
6 | 8.2 | CN1CCN(Cc2cc(C(=O)Nc3sc(Nc4cccc5ncccc45)nc3C(N)=O)cs2)CC1 [Example 56, 5-{5-[(4-methylpiperazin-1-yl)methyl]thiophene-3-carboxamido}-2-(quinolin-5-ylamino)thiazole-4-carboxamide]
7 | 4.8 | NC(=O)c1nc(Nc2cccc3ncccc23)sc1NC(=O)c1ccc(Cn2ccnc2)cc1 [Example 254, 5-{4-[(1H-imidazol-1-yl)methyl]benzamido}-2-(quinolin-5-ylamino)thiazole-4-carboxamide]
8 | 3.4 | NC(=O)c1nc(Nc2ccc3ccccc3c2)sc1NC(=O)c1ccc(CN2CCC(O)CC2)cc1 [Example 173, 5-{4-[(4-hydroxypiperidin-1-yl)methyl]benzamido}-2-(naphthalen-2-ylamino)thiazole-4-carbox-amide]
9 | 7.5 | NC(=O)c1nc(Nc2ccc3ccccc3c2)sc1NC(=O)c1ccc[nH]1 [Example 33, 2-(naphthalen-2-ylamino)-5-(1H-pyrrole-2-carbox-amido)thiazole-4-carboxamide]
10 | 8.7 | NC(=O)c1nc(Nc2ccc3ccccc3c2)sc1NC(=O)c1csc(Cn2ccnc2)c1 [Example 258, 5-{5-[(1H-imidazol-1-yl)methyl]thiophene-3-carboxamido}-2-(naphthalen-2-ylamino)thiazole-4-carboxamide]
11 | 10.1 | NC(=O)c1nc(Nc2ccc3cc(F)ccc3c2)sc1NC(=O)c1ccc(Cn2ccnc2)cc1 [Example 249, 5-{4-[(1H-imidazol-1-yl)methyl]benzamido}-2-[(6-fluoronaphthalen-2-yl)amino]thiazole-4-carbox-amide]
12 | 20.2 | NC(=O)c1nc(Nc2ccc3ccccc3c2)sc1NC(=O)CCCCCN1CCOCC1 [Example 92, 5-(6-morpholinohexanamido)-2-(naphthalen-2-ylamino)thiazole-4-carboxamide]
13 | 1.3 | NC(=O)c1nc(Nc2ccc3ccccc3c2)sc1NC(=O)c1ccc(CN2CCC(N)CC2)cc1 [Example 222, 5-{4-[(4-aminopiperidin-1-yl)methyl]benzamido}-2-(naphthalen-2-ylamino)thiazole-4-carboxamide]
14 | 21.5 | COc1ccc(C(=O)Nc2sc(Nc3ccc4ncccc4c3)nc2C(N)=O)cc1 [Example 4, 5-(4-methoxybenzamido)-2-(quinolin-6-ylamino) thiazole-4-carboxamide]
15 | 5.3 | NC(=O)c1nc(Nc2ccc3ccccc3c2)sc1NC(=O)c1ccc(Cn2cc(CO)nn2)cc1 [Example 260, 5-{4-[(4-(hydroxymethyl)-1H-1,2,3-triazol-1-yl)methyl]benzamido}-2-(naphthalen-2-ylamino) thiazole-4-carboxamide]
16 | 5.6 | NC(=O)c1nc(Nc2ccc3ccccc3c2)sc1NC(=O)c1ccc(CN2CC(O)C2)cc1 [Example 201, 5-{4-[(3-hydroxyazetidin-1-yl)methyl]benzamido}-2-(naphthalen-2-ylamino)thiazole-4-carbox-amide]
17 | 5 | NC(=O)c1nc(Nc2ccc3ccccc3c2)sc1NC(=O)c1ccc(CN2CC[C@H](O)C2)cc1 [Example 203, (S)-5-{4-[(3-hydroxypyrrolidin-1-yl)methyl]benzamido}-2-(naphthalen-2-ylamino)thiazole-4-carboxamide]
18 | 10.7 | CC(O)CNc1ccc(C(=O)Nc2sc(Nc3ccc4ccccc4c3)nc2C(N)=O)cc1 (stereo not drawn) [Example 30, 5-{4-[(2-hydroxypropyl)amino]benzamido}-2-(naphthalen-2-ylamino)thiazole-4-carboxamide]
19 | 2.7 | NC(=O)c1nc(Nc2ccc3ccccc3c2)sc1NC(=O)c1ccc(CN2CCN(CCO)CC2)cc1 [Example 185, 5-(4-{[4-(2-hydroxyethyl)piperazin-1-yl]methyl}benzamido)-2-(naphthalen-2-ylamino)thiazole-4-carboxamide]
20 | 14.8 | NC(=O)c1nc(Nc2ccc3ccccc3c2)sc1NC(=O)c1ccc(Cn2cnc([N+](=O)[O-])n2)cc1 [Example 243, 2-(naphthalen-2-ylamino)-5-{4-[(3-nitro-1H-1,2,4-triazol-1-yl)methyl]benzamido}thiazole-4-carbox-amide]
21 | 24.4 | NC(=O)c1nc(Nc2ccc3ccccc3c2)sc1NC(=O)c1ccc(NCCO)c(N)c1 [Example 121, 5-{3-amino-4-[(2-hydroxyethyl)amino]benzamido}-2-(naphthalen-2-ylamino)thiazole-4-carbox-amide]
22 | 5.8 | NC(=O)c1nc(Nc2ccc3ccccc3c2)sc1NC(=O)c1ccc(CCO)cc1 [Example 116, 5-[4-(2-hydroxyethyl)benzamido]-2-(naphthalen-2-ylamino)thiazole-4-carboxamide]
23 | 19.5 | NC(=O)c1nc(Nc2ccc3ccc(F)cc3c2)sc1NC(=O)CCCCCN1CCOCC1 [Example 130, 2-[(7-fluoronaphthalen-2-yl)amino]-5-(6-morpho-linohexanamido)thiazole-4-carboxamide]
24 | 2.6 | CN(C)[C@H]1CCN(Cc2ccc(C(=O)Nc3sc(Nc4ccc5ccccc5c4)nc3C(N)=O)cc2)C1 [Example 221, (S)-5-(4-{[3-(dimethylamino)pyrrolidin-1-yl]methyl}benzamido)-2-(naphthalen-2-ylamino) thiazole-4-carboxamide]
25 | 16 | CN1CCN(C/C=C/C(=O)Nc2sc(Nc3ccc4ccccc4c3)nc2C(N)=O)CC1 [Example 174, (E)-5-(4-(4-methylpiperazin-1-yl)but-2-enamido)-2-(naphthalen-2-ylamino)thiazole-4-carboxamide]
26 | 3 | NC(=O)c1nc(Nc2ccc3ccccc3c2)sc1NC(=O)c1ccc(CN2CC[C@H](N)C2)cc1 [Example 220, (S)-5-{4-[(3-aminopyrrolidin-1-yl)methyl]benz-amido}-2-(naphthalen-2-ylamino)thiazole-4-carbox-amide]
27 | 4.5 | NC(=O)c1nc(Nc2ccc3ccccc3c2)sc1NC(=O)C#CCO [Example 218, 5-(4-hydroxybut-2-ynamido)-2-(naphthalen-2-yl-amino)thiazole-4-carboxamide]
